In one data set the target is T1, HiDapE (Haemophilus influenzae, UniProt P44514).
T1 construct: His6 (cleaved yes); made in house
The data set is described as follows: ninhydrin-based DapE inhibition assay (N6-methyl-L,L-SDAP substrate). The format is biochemical. The following applies: for IC50: from three or four % inhibition points, N-Me-SDAP substrate. From the text:
To conveniently measure the inhibitory potency of test compounds against DapE, we recently developed a ninhydrin-based assay employing the unnatural but well-tolerated substrate N^6-methyl-L,L-SDAP (1b). Enzymatic cleavage of 1b affords primary amine product 3b (Figure 1), which can be quantified spectrophotometrically following treatment with ninhydrin. Importantly, this assay avoids the significant background signal that would be produced by the reaction of the primary amine in native substrate 1a with ninhydrin. […]
DapE inhibition was measured according to the method previously described. In brief, the enzymatic activity of DapE was measured in triplicate at 570 nm by the Ruhemann’s purple complex formed through the reaction of the exposed primary amine and ninhydrin. To 175 µL of 50 mM HEPES (4-(2-hydroxyethyl)-1-piperazineethanesulfonic acid) buffer at pH 7.5 with 5 µL of 1µM DapE stock solution at 30 °C, 20 µL of 10 mM monomethyl SDAP ((2S,6S)-2-(3-carboxypropanamido)-6-(methylamino)heptanedioic acid) TFA salt was added. The reaction was allowed to proceed for 10 min and quenched by heating at 100 °C for 1 min and subsequently cooling on ice for 1 min. To the cooled reaction, 2% ninhydrin reagent in 100% DMSO (final volume 300 µL) was added and subsequently heated to 80 °C for 15 min. This was quenched by placing in ice water for 2 min, and the absorbance of an 80 µL aliquot was read at 570 nm via a microplate reader. These reactions were set as 100% standard enzyme activity of DapE.

Data set [1] can be described thus: solubility at assay concentration. It counts as physicochemical. The following applies: at 200 μM; insol. = insoluble. From the text: The compounds synthesized along with their DapE inhibitory potencies measured using the N-Me-SDAP substrate are summarized in Table 1. We kept the N-acetyl group as well as the 5-halogen moiety constant in this first series while varying the sulfonamide N-substituent. […] Several derivatives had poor solubility, limiting the ability to test inhibition at higher concentrations.

Data set [2] has as its system DapE from Haemophilus influenza (HiDapE). The conditions noted are these: competitive inhibitor of HiDapE; cited from earlier work.
Another data set addresses DapE (Haemophilus influenzae, UniProt P44514). The data set is described as follows: high-throughput screen of ~33,000 compounds for DapE inhibitors. It counts as biochemical. The conditions noted are these: read-out: % inhibition of DapE in high-throughput screen. An excerpt: We were pleased that these two indoline hit structures provided mutual confirmation of one another. Furthermore, indolines are a privileged scaffold in medicinal chemistry, as there are several examples of indoline-containing drugs approved for a variety of treatments: advanced or transitional cell carcinoma of the urothelial tract (vinflunine), glaucoma and severe anticholinergic toxicity (physostigmine), and schizophrenia in adults (lumateperone), or are under investigation, as for benign prostatic hyperplasia (BPH). Furthermore, sulfonamides are pervasive in agrochemicals and in pharmaceuticals across therapeutic areas, and primary sulfonamides have recently been leveraged as versatile intermediates.

We go through 23 compounds from article PMC7560015, “Indoline-6-Sulfonamide Inhibitors of the Bacterial Enzyme DapE” (Antibiotics, 2020).

Like-named read-outs stand apart in the source and are kept apart here.

Usually inhibition stands for the share of the control response that was lost under treatment. Broadly, the melting point is the temperature of the solid-liquid transition. Broadly, the IC50 is the concentration that gives 50% inhibition.

T1 sequence (P44514 whole entry): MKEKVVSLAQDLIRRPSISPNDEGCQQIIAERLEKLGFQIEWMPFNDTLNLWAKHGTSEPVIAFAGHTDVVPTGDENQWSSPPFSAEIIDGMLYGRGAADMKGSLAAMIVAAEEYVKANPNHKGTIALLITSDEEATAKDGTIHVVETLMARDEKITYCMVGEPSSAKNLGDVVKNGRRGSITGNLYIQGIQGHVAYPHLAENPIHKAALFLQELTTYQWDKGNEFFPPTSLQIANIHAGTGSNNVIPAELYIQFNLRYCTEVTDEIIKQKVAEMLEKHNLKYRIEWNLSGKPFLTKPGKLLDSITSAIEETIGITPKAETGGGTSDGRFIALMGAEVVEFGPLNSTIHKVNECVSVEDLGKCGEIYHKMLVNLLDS
DapE, sequence (P44514 whole entry): as above

Regarding `CC(=O)N1CCc2cc(Br)c(S(=O)(=O)NCC(C)C)cc21` [9a, 1-Acetyl-5-Bromo-N-Isobutylindoline-6-Sulfonamide], on HiDapE, the inhibition at 200 µM was found to be 20%.

For the compound `CC(=O)N1CCc2cc(Br)c(S(=O)(=O)NC3CCCCC3)cc21` [9b, 1-Acetyl-5-Bromo-N-Cyclohexylindoline-6-Sulfonamide], the melting point was 226 to 228 °C. At HiDapE, this compound had an IC50 of 162 µM.

As to `CC(=O)N1CCc2cc(Br)c(S(=O)(=O)NCc3ccccc3)cc21` [9c, 1-Acetyl-N-Benzyl-5-Bromoindoline-6-Sulfonamide], the melting point lay within 205 to 208 °C. On HiDapE, this compound gave an inhibition at 200 µM of 56%.

Regarding `CC(=O)N1CCc2cc(Br)c(S(=O)(=O)NC(C)(C)C)cc21` [9d, 1-Acetyl-5-Bromo-N-(Tert-Butyl)Indoline-6-Sulfonamide], the inhibition at 100 µM at HiDapE came to 39%.

In turn, `COC(=O)CNS(=O)(=O)c1cc2c(cc1Br)CCN2C(C)=O` [9e, 1-Acetyl-5-Bromoindolin-6-(Sulfonyl Glycine Methyl Ester)] had a melting point of 179 to 182 °C. Moreover, at HiDapE, the “DapE inhibitory potency in words” value is “nearly inactive” and the inhibition at 200 µM was 17%.

In the case of `COC(=O)CCNS(=O)(=O)c1cc2c(cc1Br)CCN2C(C)=O` [9f, Methyl 3-((1-Acetyl-5-Bromoindoline)-6-Sulfonamido)Propanoate], the melting point lay within 190 to 193 °C. Besides, half-maximal inhibition on HiDapE (IC50) was put at 118 µM.

Take `COC(=O)[C@@H](NS(=O)(=O)c1cc2c(cc1Br)CCN2C(C)=O)C(C)C` [9g, Methyl ((1-Acetyl-5-Bromoindolin-6-yl)Sulfonyl)Valinate]: the melting point is 190.9 to 191.7 °C. This compound showed an IC50 against HiDapE of 82 µM.

On HiDapE, `COC(=O)[C@H](Cc1ccccc1)NS(=O)(=O)c1cc2c(cc1Br)CCN2C(C)=O` [9h, Methyl ((1-Acetyl-5-Bromoindolin-6-yl)Sulfonyl)-L-Phenylalaninate] had an inhibition at 200 µM of 61%.

For `CC(=O)N1CCc2cc(Br)c(S(=O)(=O)N3CCCCC3)cc21` [9i, 1-Acetyl-5-Bromo-6-(Piperidin-1-Sulfonyl) Indoline], the melting point was 212 to 214 °C. The same compound returned an IC50 against HiDapE of 133 µM.

Regarding `CC(=O)N1CCc2cc(Br)c(S(=O)(=O)N3CCCC3)cc21` [9j, 1-Acetyl-5-Bromo-6-(Pyrrolidin-1-Sulfonyl) Indoline], the melting point lay within 238 to 240 °C. This compound also yielded an IC50 against HiDapE of 97 µM.

`CC(=O)N1CCc2cc(Br)c(S(=O)(=O)N3CCc4ccccc43)cc21` [9k, 1-Acetyl-5-Bromo-6-(Indolin-1-Sulfonyl) Indoline]: the melting point lay within 215 to 218 °C. Further, at HiDapE, half-maximal inhibition (IC50) required 86 µM.

Turning to `CCCN(CCC)S(=O)(=O)c1cc2c(cc1Br)CCN2C(C)=O` [9l, 1-Acetyl-5-Bromo-N,N-Dipropylindoline-6-Sulfonamide], the melting point was in the range of 118 to 120 °C. The “solubility in the DapE assay” value in data set [1] is “insol”. Further, at HiDapE, the “DapE inhibitory potency in words” value is given as “significantly less potent” and at 20 µM the inhibition was 5%.

For the compound `COCCN(CCOC)S(=O)(=O)c1cc2c(cc1Br)CCN2C(C)=O` [9m, 1-Acetyl-5-Bromo-N,N-bis(2-Methoxyethyl)Indoline-6-Sulfonamide], the melting point was 110 to 111 °C. Further, on HiDapE, the “DapE inhibitory potency in words” value was “significantly less potent” and 100 µM produced 26% inhibition.

Compound `CCN(CC)S(=O)(=O)c1cc2c(cc1Br)CCN2C(C)=O` [9n, 1-Acetyl-5-Bromo-N,N-Diethylindoline-6-Sulfonamide] showed a melting point of 195 to 196 °C. The IC50 on HiDapE turned out to be 99 µM.

In the case of `CC(=O)N1CCc2cc(Cl)c(S(=O)(=O)NCCC(C)C)cc21` [10a, 1-Acetyl-5-Chloro-N-Isopentylindoline-6-Sulfonamide], the “fold more potent than corresponding 5-bromo derivative” value at HiDapE (10a relative to 4) is recorded as ~ 5 ×. On HiDapE, this compound came in with an IC50 of 54 µM.

In turn, `CC(=O)N1CCc2cc(Cl)c(S(=O)(=O)NC3CCCCC3)cc21` [10b, 1-Acetyl-5-Chloro-N-Cyclohexylindoline-6-Sulfonamide] showed a melting point of 230 to 230.5 °C. The inhibition at 200 µM against HiDapE was found to be 58%.

As for `CC(=O)N1CCc2cc(Cl)c(S(=O)(=O)N3CCCCC3)cc21` [10c, 1-(5-Chloro-6-(Piperidin-1-Ylsulfonyl)Indolin-1-yl)Ethan-1-One], the melting point is 199.7 to 201.4 °C. The “fold more potent than corresponding 5-bromo derivative” value on HiDapE (10c relative to 9i) was ~ 3 ×. Also, it took 44 µM to reach half-maximal inhibition against HiDapE (IC50).

In the case of `CC(=O)N1CCc2cc(Cl)c(S(=O)(=O)N3CCCC3)cc21` [10d, 1-(5-Chloro-6-(Pyrrolidin-1-Ylsulfonyl)Indolin-1-yl)ethan-1-One], at HiDapE, the IC50 stood at 172 µM.

The compound `CCCN(CCC)S(=O)(=O)c1cc2c(cc1Cl)CCN2C(C)=O` [10e, 1-Acetyl-5-Chloro-N,N-Dipropylindoline-6-Sulfonamide] yielded an IC50 against HiDapE of 88 µM.

On to `COCCN(CCOC)S(=O)(=O)c1cc2c(cc1Cl)CCN2C(C)=O` [10f, 1-Acetyl-5-Chloro-N,N-bis(2-Methoxyethyl)Indoline-6-Sulfonamide], for which the melting point fell in the range of 93.2 to 94.4 °C. The IC50 against HiDapE was above 200 µM.

Consider `C[C@H](CS)C(=O)N1CCC[C@H]1C(=O)O` [captopril], for which the IC50 in data set [2] was 3.3 µM.

Regarding `CC(=O)N1CCc2cc(Br)c(S(=O)(=O)NCCC(C)C)cc21` [compound 4, 1-Acetyl-5-Bromo-N-Isopentylindoline-6-Sulfonamide], the melting point was in the range of 190 to 191 °C. Further, the inhibition at 12 µM on DapE (at 12 μM, arbitrary hit cutoff) is above 20%. For the same compound, the inhibition at 200 µM at HiDapE (at 200 μM, single concentration, read-out: % Inhibition) was found to be 42%. The compound further showed a half-inhibitory concentration (IC50) at HiDapE above 200 µM.

In the case of `CC(=O)N1CCc2cc(Br)c(S(=O)(=O)N3CC(C)CC(C)C3)cc21` (stereo not shown) [compound 5], the inhibition at 12 µM on DapE is above 20%.
